In brackets after ≈: the same amount, converted by molar mass. Each block holds one molecule with its values, some of them ahead of it.
Tests used:
Assay in all cases: In vitro antibacterial evaluation: minimum inhibitory concentration (MIC), broth dilution method
Type in all cases: cell-based
Streptococcus sp. = tested on: Streptococcus sp.
Method: (§1) The minimum inhibitory concentration (MIC), the lowest concentration of the antibiotic which inhibits growth of the test organism, is determined by the broth dilution method using Muller-Hinton II […] (Baltimore Biological Laboratories) following the recommendations of the National Committee for Clinical Laboratory Standards [Methods for dilution antimicrobial susceptibility tests for bacteria that grow aerobically, approved standard M7-A2, National Committee for Clinical Laboratory Standards, Villanova, Pa].
(§2) An inoculum level of 5×10^5 CFU/mL, and a range of antibiotic concentrations (64-0.06 μg/mL) is used. […] The test organisms include a spectrum of Gram-positive bacteria comprised of Staphylococcus sp., Streptococcus sp. and Enterococcus sp. These organisms include recent clinical isolates that are resistant to methicillin, penicillin and/or vancomycin.

Enterococcus sp. = tested on: Enterococcus sp.
Method: as §1, §2

Staphylococcus sp. = conditions: for MIC Staphylococcus aureus-SMITH (GC 4543): strain GC 4543; for MIC Staphylococcus haemolyticus (GC 4546): strain GC 4546; for MIC Coagulase Negative Staphylococcus (GC 4547): strain GC 4547; for MIC Coagulase Negative Staphylococcus (GC 4548): strain GC 4548; for MIC Coagulase Negative Staphylococcus (GC 4549): strain GC 4549; for MIC Coagulase Negative Staphylococcus (GC 4551): strain GC 4551; for MIC Coagulase Negative Staphylococcus (ID-3941): strain ID-3941
Method: as §1, §2

Escherichia coli = Escherichia coli (GC 4560); 18 hours at 35° C.
Method: as §1, §2

[1] = broth dilution, 18 hours at 35° C.
[2] = broth dilution, inoculum 5×10^5 CFU/mL, 18 hours at 35° C.
[3] = Enterococcus avium (GC 4558), 18 hours at 35° C.

MIC Streptococcus agalactiae (GC 4564) (Streptococcus sp.; strain GC 4564): 0.25 µg/mL (≈ 0.168 µM) | MIC Streptococcus pneumoniae (GC 4565) (Streptococcus sp.; strain GC 4565): <0.12 µg/mL | MIC Streptococcus pyogenes (ID-3187) (Streptococcus sp.; strain ID-3187): 0.25 µg/mL (≈ 0.168 µM) | MIC Enterococcus faecalis (ATCC 29212) (Enterococcus sp.; strain ATCC 29212): 8 µg/mL (≈ 5.37 µM) | MIC Enterococcus faecalis (GC 2242) (Enterococcus sp.; strain GC 2242): 4 µg/mL (≈ 2.69 µM) | MIC Enterococcus faecium (GC 2243) (Enterococcus sp.; strain GC 2243): 8 µg/mL (≈ 5.37 µM) | MIC Enterococcus faecalis (GC 4552) (Enterococcus sp.; strain GC 4552): 8 µg/mL (≈ 5.37 µM) | MIC Enterococcus faecalis (GC 4553) (Enterococcus sp.; strain GC 4553): 8 µg/mL (≈ 5.37 µM) | MIC Enterococcus faecalis (GC 4554) (Enterococcus sp.; strain GC 4554): 8 µg/mL (≈ 5.37 µM) | MIC Enterococcus faecium (GC 4556) (Enterococcus sp.; strain GC 4556): 8 µg/mL (≈ 5.37 µM) | MIC Enterococcus faecium (GC 4557) (Enterococcus sp.; strain GC 4557): 1 µg/mL (≈ 0.671 µM) | MIC Enterococcus avium (GC 4558) (Enterococcus sp.; strain GC 4558): 4 µg/mL (≈ 2.69 µM) | MIC Staphylococcus aureus (ATCC 29213) (Staphylococcus sp.; [1]): 1 µg/mL (≈ 0.671 µM) | MIC Staphylococcus aureus (GC 1131) (Staphylococcus sp.; [1]): 2 µg/mL (≈ 1.34 µM) | MIC Staphylococcus aureus (GC 4541) (Staphylococcus sp.; [1]): 1 µg/mL (≈ 0.671 µM) | MIC Staphylococcus aureus (GC 4542) (Staphylococcus sp.; [1]): 2 µg/mL (≈ 1.34 µM) | MIC Staphylococcus aureus (GC 4544) (Staphylococcus sp.; [1]): 2 µg/mL (≈ 1.34 µM) | MIC Staphylococcus aureus (GC 4545) (Staphylococcus sp.; [1]): 1 µg/mL (≈ 0.671 µM) | MIC Staphylococcus aureus-SMITH (GC 4543) (Staphylococcus sp.; 18 hours at 35° C.): 2 µg/mL (≈ 1.34 µM) | MIC Staphylococcus aureus-SMITH (GC 4543) (Staphylococcus sp.; [1]): 2 µg/mL (≈ 1.34 µM) | MIC Coagulase Negative Staphylococcus (GC 4547) (Staphylococcus sp.): 1 µg/mL (≈ 0.671 µM) | MIC Coagulase Negative Staphylococcus (GC 4547) (Staphylococcus sp.; [1]): 1 µg/mL (≈ 0.671 µM) | MIC Coagulase Negative Staphylococcus (GC 4548) (Staphylococcus sp.): 0.5 µg/mL (≈ 0.336 µM) | MIC Coagulase Negative Staphylococcus (GC 4548) (Staphylococcus sp.; [1]): 0.5 µg/mL (≈ 0.336 µM) | MIC Coagulase Negative Staphylococcus (GC 4549) (Staphylococcus sp.): 0.5 µg/mL (≈ 0.336 µM) | MIC Coagulase Negative Staphylococcus (GC 4549) (Staphylococcus sp.; [1]): 0.5 µg/mL (≈ 0.336 µM) | MIC Coagulase Negative Staphylococcus (GC 4551) (Staphylococcus sp.): 2 µg/mL (≈ 1.34 µM) | MIC Coagulase Negative Staphylococcus (GC 4551) (Staphylococcus sp.; [1]): 2 µg/mL (≈ 1.34 µM) | MIC Coagulase Negative Staphylococcus (ID-3941) (Staphylococcus sp.): 0.5 µg/mL (≈ 0.336 µM) | MIC Coagulase Negative Staphylococcus (ID-3941) (Staphylococcus sp.; [1]): 0.5 µg/mL (≈ 0.336 µM)
SMILES: CC(c1ccccc1)C1NC(=O)CNC(=O)C(CO)NC(=O)C(C(O)C2CNC(=N)N2C2OC(CO)C(O)C(O)C2O)NC(=O)C(C(O)C2CNC(=N)N2)NC(=O)C(Cc2ccc(OC3OC(COC(=O)C(c4ccccc4)c4ccccc4)C(OC4OC(CO)C(O)C(O)C4O)C(O)C3O)cc2)NC1=O (stereo not drawn) [Example 96b, Cyclo[glycyl-β-methylphenylalanyl-O-[6-O-(diphenylacetyl)-4-O-hexopyranosylhexopyranosyl]tyrosyl-3-(2-iminoimidazolidin-4-yl)seryl-3-(3-hexopyranosyl-2-iminoimidazolidin-4-yl)serylseryl]]
MIC Staphylococcus haemolyticus (GC 4546) (Staphylococcus sp.): 1 µg/mL (≈ 0.671 µM) | MIC Staphylococcus haemolyticus (GC 4546) (Staphylococcus sp.; [1]): 1 µg/mL (≈ 0.671 µM)

MIC Streptococcus agalactiae (GC 4564) (Streptococcus sp.; Streptococcus agalactiae (GC 4564), 18 hours at 35° C.): <0.12 µg/mL | MIC Streptococcus pneumoniae (ATCC 6301) (Streptococcus sp.; Streptococcus pneumoniae (ATCC 6301), 18 hours at 35° C.): <0.12 µg/mL | MIC Streptococcus pneumoniae (GC 1894) (Streptococcus sp.; Streptococcus pneumoniae (GC 1894), 18 hours at 35° C.): <0.12 µg/mL | MIC Streptococcus pneumoniae (GC 4565) (Streptococcus sp.; Streptococcus pneumoniae (GC 4565), 18 hours at 35° C.): <0.12 µg/mL | MIC Streptococcus pyogenes (GC 4563) (Streptococcus sp.; Streptococcus pyogenes (GC 4563), 18 hours at 35° C.): 0.5 µg/mL (≈ 0.268 µM) | MIC Streptococcus agalactiae (GC 4564) (Streptococcus sp.; [2]): <0.12 µg/mL | MIC Streptococcus pneumoniae (ATCC 6301) (Streptococcus sp.; [2]): <0.12 µg/mL | MIC Streptococcus pneumoniae (GC 1894) (Streptococcus sp.; [2]): <0.12 µg/mL | MIC Streptococcus pneumoniae (GC 4565) (Streptococcus sp.; [2]): <0.12 µg/mL | MIC Streptococcus pyogenes (GC 4563) (Streptococcus sp.; [2]): 0.5 µg/mL (≈ 0.268 µM) | MIC Enterococcus avium (GC 4558) (Enterococcus sp.; [3]): 16 µg/mL (≈ 8.58 µM) | MIC Enterococcus faecalis (ATCC 29212) (Enterococcus sp.; Enterococcus faecalis (ATCC 29212), 18 hours at 35° C.): 64 µg/mL (≈ 34.3 µM) | MIC Enterococcus faecalis (GC 2242) (Enterococcus sp.; Enterococcus faecalis (GC 2242), 18 hours at 35° C.): 64 µg/mL (≈ 34.3 µM) | MIC Enterococcus faecalis (GC 2691) (Enterococcus sp.; Enterococcus faecalis (GC 2691), 18 hours at 35° C.): 16 µg/mL (≈ 8.58 µM) | MIC Enterococcus faecalis (GC 4552) (Enterococcus sp.; Enterococcus faecalis (GC 4552), 18 hours at 35° C.): 64 µg/mL (≈ 34.3 µM) | MIC Enterococcus faecalis (GC 4553) (Enterococcus sp.; Enterococcus faecalis (GC 4553), 18 hours at 35° C.): 32 µg/mL (≈ 17.2 µM) | MIC Enterococcus faecalis (GC 4554) (Enterococcus sp.; Enterococcus faecalis (GC 4554), 18 hours at 35° C.): 64 µg/mL (≈ 34.3 µM) | MIC Enterococcus faecalis (GC 6189) (Enterococcus sp.; Enterococcus faecalis (GC 6189), 18 hours at 35° C.): 16 µg/mL (≈ 8.58 µM) | MIC Enterococcus faecium (GC 2243) (Enterococcus sp.; Enterococcus faecium (GC 2243), 18 hours at 35° C.): 16 µg/mL (≈ 8.58 µM) | MIC Enterococcus faecium (GC 4557) (Enterococcus sp.; Enterococcus faecium (GC 4557), 18 hours at 35° C.): 16 µg/mL (≈ 8.58 µM) | MIC Enterococcus avium (GC 4558) (Enterococcus sp.; [2]): 16 µg/mL (≈ 8.58 µM) | MIC Enterococcus faecalis (ATCC 29212) (Enterococcus sp.; [2]): 64 µg/mL (≈ 34.3 µM) | MIC Enterococcus faecalis (GC 2242) (Enterococcus sp.; [2]): 64 µg/mL (≈ 34.3 µM) | MIC Enterococcus faecalis (GC 2691) (Enterococcus sp.; [2]): 16 µg/mL (≈ 8.58 µM) | MIC Enterococcus faecalis (GC 4552) (Enterococcus sp.; [2]): 64 µg/mL (≈ 34.3 µM) | MIC Enterococcus faecalis (GC 4553) (Enterococcus sp.; [2]): 32 µg/mL (≈ 17.2 µM) | MIC Enterococcus faecalis (GC 4554) (Enterococcus sp.; [2]): 64 µg/mL (≈ 34.3 µM) | MIC Enterococcus faecalis (GC 6189) (Enterococcus sp.; [2]): 16 µg/mL (≈ 8.58 µM) | MIC Enterococcus faecium (GC 2243) (Enterococcus sp.; [2]): 16 µg/mL (≈ 8.58 µM) | MIC Enterococcus faecium (GC 4557) (Enterococcus sp.; [2]): 16 µg/mL (≈ 8.58 µM) | MIC Staphylococcus aureus (ATCC 29213) (Staphylococcus sp.; strain ATCC 29213): 64 µg/mL (≈ 34.3 µM) | MIC Staphylococcus aureus (GC 1131) (Staphylococcus sp.; strain GC 1131): 64 µg/mL (≈ 34.3 µM) | MIC Staphylococcus aureus (GC 3051) (Staphylococcus sp.; strain GC 3051): 64 µg/mL (≈ 34.3 µM) | MIC Staphylococcus aureus (GC 3053) (Staphylococcus sp.; strain GC 3053): 32 µg/mL (≈ 17.2 µM) | MIC Staphylococcus aureus (GC 4541) (Staphylococcus sp.; strain GC 4541): 64 µg/mL (≈ 34.3 µM) | MIC Staphylococcus aureus (GC 4542) (Staphylococcus sp.; strain GC 4542): 64 µg/mL (≈ 34.3 µM) | MIC Staphylococcus aureus-SMITH (GC 4543) (Staphylococcus sp.): 64 µg/mL (≈ 34.3 µM) | MIC Staphylococcus aureus (GC 4544) (Staphylococcus sp.; strain GC 4544): 64 µg/mL (≈ 34.3 µM) | MIC Staphylococcus aureus (GC 4545) (Staphylococcus sp.; strain GC 4545): 64 µg/mL (≈ 34.3 µM) | MIC Coagulase Negative Staphylococcus (GC 4548) (Staphylococcus sp.): 16 µg/mL (≈ 8.58 µM) | MIC Coagulase Negative Staphylococcus (GC 4549) (Staphylococcus sp.): 64 µg/mL (≈ 34.3 µM) | MIC Coagulase Negative Staphylococcus (GC 4551) (Staphylococcus sp.): 32 µg/mL (≈ 17.2 µM) | MIC Coagulase Negative Staphylococcus (GC 6257) (Staphylococcus sp.; strain GC 6257): 32 µg/mL (≈ 17.2 µM)
SMILES: CC(c1ccccc1)C1NC(=O)CNC(=O)C(CO)NC(=O)C(C(O)C2CNC(=N)N2C2OC(CO)C(O)C(O)C2O)NC(=O)C(C(O)C2CNC(=N)N2)NC(=O)C(Cc2ccc(OC3OC(CO)C(OC4OC5COC(c6ccc(C(=O)c7cc(I)c(I)c(I)c7)cc6)OC5C(O)C4O)C(O)C3O)cc2)NC1=O (stereo not drawn) [Example 187]

MIC Escherichia coli (GC 4560) (Escherichia coli): 32 µg/mL (≈ 22 µM) | MIC Enterococcus avium (GC 4558) (Enterococcus sp.; [3]): 64 µg/mL (≈ 44 µM) | MIC Enterococcus avium (GC 4558) (Enterococcus sp.; [2]): 64 µg/mL (≈ 44 µM)
SMILES: CC(c1ccccc1)C1NC(=O)CNC(=O)C(CO)NC(=O)C(C(O)C2CNC(=N)N2C2OC(CO)C(O)C3OC(C)(C)OC32)NC(=O)C(C(O)C2CNC(=N)N2)NC(=O)C(Cc2ccc(OC3OC(CO)C(OC4OC5COC(C)(C)OC5C5OC(C)(C)OC45)C4OC(C)(C)OC34)cc2)NC1=O (stereo not drawn) [Example 229b, Cyclo[glycyl-β-methylphenylalanyl-O-[2,3-O-isopropylidene-4-O-(2,3:4,6-di-O-isopropylidene-hexopyranosyl)hexopyranosyl]tyrosyl-3-(2-iminoimidazolidin-4-yl)seryl-3-[2-imino-(2,3-O-isopropylidenehexopyranosyl)imidazolidin-4-yl]serylseryl]]

— patent publication US8247211B2, “Glycopeptide antibiotics” (American Cyanamid Company, priority 2001, dated 2012)
